Assay results reported in patent US20240293558A1, “KRAS INHIBITOR CONJUGATES” (Erasca, Inc., priority 2021, published 2024).
Where two headings read alike, the source gives them in different places.

How the values were obtained:
Assay type in all cases: cell-based
WT KRAS = molecular target: T1, WT KRAS (Homo sapiens, UniProt P01116); assay: Degradation of KRAS wild type (WT) in HT-29 cells, Western blot; details: HT-29 cell line, after 24 h treatment (FIG. 12)
T1 construct: endogenous in cells; host or cells: HT-29 (ATCC HTB-38)
Description: This Example illustrates that embodiments of the present application degrade KRAS WT
HT-29 cells (ATCC HTB-38) expressing WT KRAS were grown in McCoy's 5a medium modified (ATCC cat #30-2007) supplemented with 10% fetal bovine serum, and Penicillin/Streptomycin. Cell were plated in 6-well tissue culture plates at a density of 1 million cells/well and allowed to attach for overnight. Diluted compounds were then added in a final concentration of 0.2% DMSO. After 24 hour treatment, the medium was removed, and the plate was washed three times with ice-cold PBS. 50ul of the RIPA cell lysis buffer (ThermoFisher 89901) supplemented with protease inhibitor (Roche 4693116001) and Phosphatase Cocktail A and B inhibitor (Bimake B15002; Bimake Houston TX) was added to each well, the adherent cells were scratched off, and transferred into pre-cold centrifuge tubes. […] The protein concentration of the supernatant was determined with bicinchoninic acid method (BCA) (ThermoFisher 23227). […]
The levels of KRAS protein were determined by Western blotting. […] The signal intensities of bands were quantified by Li-Cor Odyssey CLX.
The KRAS signals were normalized to the GAPDH signal for each lane and percent of DMSO values were calculated to determine the degradation of KRAS upon the compound treatment.

KRAS G12D [1] = molecular target: T2, KRAS G12D (Homo sapiens, UniProt P01116, G12D); assay: Degradation of KRas G12D in AsPC-1 cells, Western blot; parameters: endogenous in cells; host or cells: AsPC-1 (ATCC CRL-1682); details: ASPC-1 cell line after 24 h treatment (FIG. 11); read-out: KRAS wild type degradation DC50
KRAS G12D [2] = molecular target: T2, KRAS G12D; assay: as above; parameters: endogenous in cells; host or cells: AsPC-1 (ATCC CRL-1682)
Description: This Example illustrates that the compounds presented herein degrade KRAS G12D.
AsPC-1 cells (ATCC CRL-1682) expressing G12D were grown in RPMI-1640 medium supplemented with 10% fetal bovine serum, and Penicillin/Streptomycin. Cell were plated in 6-well tissue culture plates at a density of 1 million cells/well and allowed to attach for overnight. Diluted compounds were then added in a final concentration of 0.2% DMSO. After 24 hour treatment, the medium was removed, and the plate was washed three times with ice-cold PBS. 50ul of the RIPA cell lysis buffer (ThermoFisher 89901) supplemented with protease inhibitor (Roche 4693116001) and Phosphatase Cocktail A and B inhibitor (Bimake B15002; Bimake Houston TX) was added to each well, the adherent cells were scratched off, and transferred into pre-cold centrifuge tubes. After vigorous vortex, the tubes were incubated on ice for 30 minutes, centrifuged 14,000 rpm for 10 min at 4° C., and the supernatant were transferred into fresh tubes kept on ice. The protein concentration of the supernatant was determined with bicinchoninic acid method (BCA) (ThermoFisher 23227). Samples were prepared to the final concentration of 30ug in 20ul using NuPAGE LDS Sample Buffer (Invitrogen NP0007), NuPAGE Sample Reducing Agent (Invitrogen NP0009), and RIPA cell lysis buffer, and boiled at 95° C. for 15 minutes in water bath.
The levels of KRAS protein and phosphorylated ERK1/2 were determined by Western blotting. 20 μL of protein sample mixture was loaded into each well of 1.5 mm 4-12% Bis-Tris gel (Invitrogen NP0335), and run at 80V in stacking gel and 120 V in separating gel for about 2 h in MOPS running buffer (Invitrogen NP0001). The gel was transferred to the membrane (20V, 7 min) with Invitrogen iBlot2, and blocked with Li-Cor blocking buffer (LI-COR 927-60001; Li-Cor Biotechnology, Lincoln NE) for at least 1 h at room temperature. Primary antibodies diluted in the blocking buffer were added and incubated at 4° C. overnight. As the primary antibodies, KRAS (Proteintech 12063-1-AP), G12D Mutant Specific KRAS (Cell Signaling Technology 14429S), ERKI1/2 (Cell Signaling Technology 4695S), Phospho-ERKI1/2 (Cell Signaling Technology 4370S), and GAPDH (Millipore MAB374) were used. The membrane was washed 4 times with TBST (0.10% Tween20®; ThermoFisher 28360) for 5 minutes at room temperature, then incubated with Li-Cor anti-rabbit-800 (LI-COR 926-68070) and anti-mouse-680 (LI-COR-926-32211) diluted in Li-Cor blocking buffer with the ratio of 1:15,000 to visualize the primary antibodies for 1 hour at room temperature. Then membrane was washed 4 times with TBST (0.1% Tween20) 5 minutes. The signal intensities of bands were quantified by Li-Cor Odyssey CLX.
The KRas and phosphor-ERK1/2 signals were normalized to the GAPDH signal for each lane and percent of DMSO values were calculated to determine the degradation of KRas and the inhibition of ERK1/2 phosphorylation upon the compound treatment.

T2 sequence (P01116 1-188 isoform P01116-2 G12D): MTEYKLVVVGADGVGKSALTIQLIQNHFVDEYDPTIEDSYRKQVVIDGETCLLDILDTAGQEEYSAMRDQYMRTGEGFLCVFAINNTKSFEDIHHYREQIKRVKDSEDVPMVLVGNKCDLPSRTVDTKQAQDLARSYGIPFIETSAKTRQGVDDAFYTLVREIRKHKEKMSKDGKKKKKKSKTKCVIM
T1 sequence (P01116 1-188 isoform P01116-2): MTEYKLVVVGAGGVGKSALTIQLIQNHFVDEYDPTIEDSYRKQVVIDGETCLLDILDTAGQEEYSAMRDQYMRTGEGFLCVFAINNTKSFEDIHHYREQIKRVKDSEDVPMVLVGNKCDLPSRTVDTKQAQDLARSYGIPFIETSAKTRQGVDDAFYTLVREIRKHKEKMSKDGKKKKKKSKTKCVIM

| DC50 (WT KRAS) [nM] | DC50 (KRAS G12D [1]) [nM] | SMILES | Dmax (KRAS G12D [2]; ASPC1, AsPc-1 cell line after 24 h treatment) [%] | KRAS G12D degradation (Western blot), result in words (KRAS G12D [2]; AsPC-1 cells, FIGS. 1-5) | DC50 (KRAS G12D [2]; AsPc-1 cell line after 24 h treatment) [nM] |
| --- | --- | --- | --- | --- | --- |
| 426 | 8.2 | C[C@H](NC(=O)[C@@H]1C[C@@H](O)CN1C(=O)[C@@H](NC(=O)CCOCCCN1CCC[C@H]1COc1nc(N2CC3CCC(C2)N3)c2cc(C(F)(F)F)c(-c3ccc(F)c4sc(N)c(C#N)c34)c(F)c2n1)C(C)(C)C)c1ccc(-c2c(F)cccc2F)cc1 (single isomer, unassigned) [Example 20] | – | – | – |
| – | – | Cc1ncsc1-c1ccc([C@H](C)NC(=O)[C@@H]2C[C@@H](O)CN2C(=O)[C@@H](NC(=O)CCOCCCN2CCCC2COc2nc(N3CC4CCC(C3)N4)c3cc(Cl)c(-c4ccc(F)c5sc(N)c(C#N)c45)c(F)c3n2)C(C)(C)C)cc1 (stereo partly drawn) [Example 8, (2S,4R)-1-[(2S)-2-[3-[3-[2-[[7-(2-amino-3-cyano-7-fluoro-benzothiophen-4-yl)-6-chloro-4-(3,8-diazabicyclo[3.2.1]octan-3-yl)-8-fluoro-quinazolin-2-yl]oxymethyl]pyrrolidin-1-yl]propoxy]propanoylamino]-3,3-dimethyl-butanoyl]-4-hydroxy-N-[(1S)-1-[4-(4-methylthiazol-5-yl)phenyl]ethyl]pyrrolidine-2-carboxamide] | 95 | Favorable results | 71 |
